Source: PubChem BioAssay AID1963980 (Molecular Pharmacology Branch, DTP, NCI, 2024)

System: 475296-252-R-J1-PDC spheroid viability
Test: Anticancer human tumor 475296-252-R-J1-PDC patient-derived rectal carcinoma cell line growth inhibition [PI3K]
Settings: spheroids with HUVEC and MSC; for IC50: curve of first compound; for viability, T/C: stronger effect = lower value
Procedure, shortened: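 Spheroid viability read-out. Co-cultures contained the tumor line plus HUVEC and human MSCs. Each agent was paired with a PI3K inhibitor (inavolisib, alpelisib, duvelisib, copanlisib) across half-log dilutions starting at clinical Cmax, or at 10 microM when Cmax was unknown.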

[1] = second compound 0.00316 µM, first compound 0.0316 µM
[2] = second compound 0.00316 µM, first compound 0.1 µM
[3] = second compound 0.00316 µM, first compound 0.316 µM
[4] = second compound 0.00316 µM, first compound 1 µM
[5] = second compound 0.00316 µM, first compound 3.16 µM
[6] = second compound 0.00316 µM, first compound 10 µM
[7] = second compound 0.01 µM, first compound 0.0316 µM
[8] = second compound 0.01 µM, first compound 0.1 µM
[9] = second compound 0.01 µM, first compound 0.316 µM
[10] = second compound 0.01 µM, first compound 1 µM
[11] = second compound 0.01 µM, first compound 3.16 µM
[12] = second compound 0.01 µM, first compound 10 µM
[13] = second compound 0.0316 µM, first compound 0.0316 µM
[14] = second compound 0.0316 µM, first compound 0.1 µM
[15] = second compound 0.0316 µM, first compound 0.316 µM
[16] = second compound 0.0316 µM, first compound 1 µM
[17] = second compound 0.0316 µM, first compound 3.16 µM
[18] = second compound 0.0316 µM, first compound 10 µM
[19] = second compound 0.1 µM, first compound 0.0316 µM
[20] = second compound 0.1 µM, first compound 0.1 µM
[21] = second compound 0.1 µM, first compound 0.316 µM
[22] = second compound 0.1 µM, first compound 1 µM
[23] = second compound 0.1 µM, first compound 3.16 µM
[24] = second compound 0.1 µM, first compound 10 µM
[25] = second compound 0.316 µM, first compound 0.0316 µM
[26] = second compound 0.316 µM, first compound 0.1 µM
[27] = second compound 0.316 µM, first compound 0.316 µM
[28] = second compound 0.316 µM, first compound 1 µM
[29] = second compound 0.316 µM, first compound 3.16 µM
[30] = second compound 0.316 µM, first compound 10 µM
[31] = second compound 1 µM, first compound 0.0316 µM
[32] = second compound 1 µM, first compound 0.1 µM
[33] = second compound 1 µM, first compound 0.316 µM
[34] = second compound 1 µM, first compound 1 µM
[35] = second compound 1 µM, first compound 3.16 µM
[36] = second compound 1 µM, first compound 10 µM
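Further: spheroids exposed to agents for seven days before readout.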

With C#Cc1c(F)ccc2cc(O)cc(-c3ncc4c(N5CC6CCC(C5)N6)nc(OCC56CCCN5CC(F)C6)nc4c3F)c12 (stereo not drawn) + CC(Nc1ccc2c(c1)OCCn1cc(N3C(=O)OCC3C(F)F)nc1-2)C(N)=O the IC50 (second compound 0.00316 µM) was > 10 µM, the IC50 (second compound 0.01 µM) was > 10 µM and the IC50 (second compound 0.0316 µM) was > 10 µM. It also gave an IC50 (second compound 0.1 µM) of 9.51 µM, an IC50 (second compound 0.316 µM) of 1.75 µM and an IC50 (second compound 1 µM) of 0.828 µM. The viability, T/C [1] was 104%, the viability, T/C [2] was 78.2% and the viability, T/C [3] was 87.1%. It also gave a viability, T/C [4] of 74.6%, a viability, T/C [5] of 67.5% and a viability, T/C [6] of 67%. It also gave a viability, T/C [7] of 98.6%, a viability, T/C [8] of 83% and a viability, T/C [9] of 85.3%. The viability, T/C [10] was 73.1%, the viability, T/C [11] was 75.1% and the viability, T/C [12] was 59.1%. It also gave a viability, T/C [13] of 94.2%, a viability, T/C [14] of 87.2% and a viability, T/C [15] of 77.6%. The viability, T/C [16] was 73.8%, the viability, T/C [17] was 73.3% and the viability, T/C [18] was 59.2%. The viability, T/C [19] was 89%, the viability, T/C [20] was 94.6% and the viability, T/C [21] was 74.3%. It also gave a viability, T/C [22] of 72.1%, a viability, T/C [23] of 61.1% and a viability, T/C [24] of 49%. It also gave a viability, T/C [25] of 78.2%, a viability, T/C [26] of 87.7% and a viability, T/C [27] of 86.6%. For the same compound, the viability, T/C [28] was 61.3%, the viability, T/C [29] was 36.5% and the viability, T/C [30] was 18.1%. It also gave a viability, T/C [31] of 92.1%, a viability, T/C [32] of 75.1% and a viability, T/C [33] of 67.4%. For the same compound, the viability, T/C [34] was 52.8%, the viability, T/C [35] was 16.9% and the viability, T/C [36] was 9.3%.

C=CC(=O)N1CCN(c2nc(=O)n(-c3c(C)ccnc3C(C)C)c3nc(-c4c(O)cccc4F)c(F)cc23)C(C)C1 (stereo not drawn) + CC(Nc1ccc2c(c1)OCCn1cc(N3C(=O)OCC3C(F)F)nc1-2)C(N)=O was tested, and the IC50 (second compound 0.00316 µM) was > 10 µM, the IC50 (second compound 0.01 µM) was > 10 µM and the IC50 (second compound 0.0316 µM) was > 10 µM. For the same compound, the IC50 (second compound 0.1 µM) was > 10 µM, the IC50 (second compound 0.316 µM) was > 10 µM and the IC50 (second compound 1 µM) was > 10 µM. The viability, T/C [1] was 83.8%, the viability, T/C [2] was 89.9% and the viability, T/C [3] was 89.4%. For the same compound, the viability, T/C [4] was 92.5%, the viability, T/C [5] was 102% and the viability, T/C [6] was 110%. It also gave a viability, T/C [7] of 90.2%, a viability, T/C [8] of 84.9% and a viability, T/C [9] of 101%. It also gave a viability, T/C [10] of 102%, a viability, T/C [11] of 102% and a viability, T/C [12] of 97.8%. For the same compound, the viability, T/C [13] was 88.3%, the viability, T/C [14] was 97.2% and the viability, T/C [15] was 91.2%. It also gave a viability, T/C [16] of 90.2%, a viability, T/C [17] of 99% and a viability, T/C [18] of 96.3%. It also gave a viability, T/C [19] of 83.7%, a viability, T/C [20] of 92.2% and a viability, T/C [21] of 96.5%. The viability, T/C [22] was 103%, the viability, T/C [23] was 94% and the viability, T/C [24] was 98.6%. For the same compound, the viability, T/C [25] was 77.5%, the viability, T/C [26] was 90.8% and the viability, T/C [27] was 88%. The viability, T/C [28] was 86.9%, the viability, T/C [29] was 83.4% and the viability, T/C [30] was 86.2%. For the same compound, the viability, T/C [31] was 82.7%, the viability, T/C [32] was 79% and the viability, T/C [33] was 87.5%. The viability, T/C [34] was 83.5%, the viability, T/C [35] was 86.6% and the viability, T/C [36] was 81.3%.

In the case of CC(Cn1ccc(-c2ccc(C#N)c(Cl)c2)n1)NC(=O)c1cc(C(C)O)[nH]n1 (stereo not drawn) + CC(Nc1ccc2c(c1)OCCn1cc(N3C(=O)OCC3C(F)F)nc1-2)C(N)=O, the IC50 (second compound 0.00316 µM) is reported as > 10 µM, the IC50 (second compound 0.01 µM) is reported as > 10 µM and the IC50 (second compound 0.0316 µM) is reported as > 10 µM. For the same compound, the IC50 (second compound 0.1 µM) was > 10 µM, the IC50 (second compound 0.316 µM) was > 10 µM and the IC50 (second compound 1 µM) was > 10 µM. The viability, T/C [1] was 110%, the viability, T/C [2] was 96.5% and the viability, T/C [3] was 93.9%. The viability, T/C [4] was 83.8%, the viability, T/C [5] was 106% and the viability, T/C [6] was 95.2%. It also gave a viability, T/C [7] of 101%, a viability, T/C [8] of 94% and a viability, T/C [9] of 98.8%. For the same compound, the viability, T/C [10] was 88.4%, the viability, T/C [11] was 98.4% and the viability, T/C [12] was 103%. It also gave a viability, T/C [13] of 87.1%, a viability, T/C [14] of 102% and a viability, T/C [15] of 91.3%. It also gave a viability, T/C [16] of 90.9%, a viability, T/C [17] of 97.5% and a viability, T/C [18] of 103%. The viability, T/C [19] was 84.6%, the viability, T/C [20] was 93.4% and the viability, T/C [21] was 101%. The viability, T/C [22] was 90.9%, the viability, T/C [23] was 95.3% and the viability, T/C [24] was 98.4%. The viability, T/C [25] was 84%, the viability, T/C [26] was 107% and the viability, T/C [27] was 91%. The viability, T/C [28] was 89.7%, the viability, T/C [29] was 90.8% and the viability, T/C [30] was 89.5%. For the same compound, the viability, T/C [31] was 92%, the viability, T/C [32] was 83.1% and the viability, T/C [33] was 87.9%. The viability, T/C [34] was 93.5%, the viability, T/C [35] was 80.6% and the viability, T/C [36] was 83.4%.

For CC1(C)CCC(Nc2ncc(C(F)(F)F)c(-c3c[nH]c4c(P(C)(C)=O)c(C#N)ccc34)n2)CN1 (stereo not drawn) + CC(Nc1ccc2c(c1)OCCn1cc(N3C(=O)OCC3C(F)F)nc1-2)C(N)=O, the IC50 (second compound 0.00316 µM) was > 10 µM, the IC50 (second compound 0.01 µM) was > 10 µM and the IC50 (second compound 0.0316 µM) was > 10 µM. For the same compound, the IC50 (second compound 0.1 µM) was > 10 µM, the IC50 (second compound 0.316 µM) was > 10 µM and the IC50 (second compound 1 µM) was > 10 µM. The viability, T/C [1] was 96.4%, the viability, T/C [2] was 86.1% and the viability, T/C [3] was 98.4%. For the same compound, the viability, T/C [4] was 116%, the viability, T/C [5] was 174% and the viability, T/C [6] was 73.9%. The viability, T/C [7] was 94.5%, the viability, T/C [8] was 81.3% and the viability, T/C [9] was 116%. The viability, T/C [10] was 136%, the viability, T/C [11] was 203% and the viability, T/C [12] was 82.8%. For the same compound, the viability, T/C [13] was 91.2%, the viability, T/C [14] was 99.7% and the viability, T/C [15] was 96.9%. The viability, T/C [16] was 136%, the viability, T/C [17] was 187% and the viability, T/C [18] was 77.1%. It also gave a viability, T/C [19] of 96.6%, a viability, T/C [20] of 103% and a viability, T/C [21] of 106%. It also gave a viability, T/C [22] of 136%, a viability, T/C [23] of 170% and a viability, T/C [24] of 72.9%. For the same compound, the viability, T/C [25] was 82.9%, the viability, T/C [26] was 92.5% and the viability, T/C [27] was 104%. It also gave a viability, T/C [28] of 111%, a viability, T/C [29] of 147% and a viability, T/C [30] of 66.5%. It also gave a viability, T/C [31] of 94.7%, a viability, T/C [32] of 88.4% and a viability, T/C [33] of 96.4%. For the same compound, the viability, T/C [34] was 105%, the viability, T/C [35] was 113% and the viability, T/C [36] was 63.1%.
